Target: T1, estrogen receptor (ERα) (Homo sapiens, UniProt P03372)
T1 construct: endogenous in cells; host or cells: MCF7 cells (ATCC)
T1 sequence (P03372 1-595): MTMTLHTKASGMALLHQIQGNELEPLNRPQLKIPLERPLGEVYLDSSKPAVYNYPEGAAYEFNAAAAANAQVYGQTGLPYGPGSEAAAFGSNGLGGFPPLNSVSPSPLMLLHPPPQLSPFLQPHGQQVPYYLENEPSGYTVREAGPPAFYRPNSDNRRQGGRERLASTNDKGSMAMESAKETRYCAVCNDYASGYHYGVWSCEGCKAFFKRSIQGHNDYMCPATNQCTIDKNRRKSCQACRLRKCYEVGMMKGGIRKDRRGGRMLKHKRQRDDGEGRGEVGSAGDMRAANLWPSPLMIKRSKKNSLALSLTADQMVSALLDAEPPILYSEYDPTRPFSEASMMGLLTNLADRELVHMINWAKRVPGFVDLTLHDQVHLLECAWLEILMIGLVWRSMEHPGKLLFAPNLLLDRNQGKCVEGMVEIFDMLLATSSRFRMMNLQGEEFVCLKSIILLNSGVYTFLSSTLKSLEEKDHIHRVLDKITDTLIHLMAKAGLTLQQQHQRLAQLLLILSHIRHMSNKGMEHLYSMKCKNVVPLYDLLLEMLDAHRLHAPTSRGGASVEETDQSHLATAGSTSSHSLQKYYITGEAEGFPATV
Test: Estrogen receptor degradation activity (ERα in cell western assay, MCF7 breast cancer cells)
Type: cell-based
Details: for percent ER degradation at 0.3 µM: 4 hours, relative to fulvestrant (0.1 μM) and DMSO; for DC50: concentration which degrades 50% of the estrogen receptor, 4 hours post compound addition, read-out: Degradation IC50
Method: Test: Estrogen Receptor Degradation Activity
Said test involves measuring the in vitro degradation activity of the compounds of the Table 1a.
The measurements of the degradation activities were made using a breast cancer cell ERα in cell western assay as described hereunder.
MCF7 cells (ATCC) were seeded in 384 wells microplate (collagen coated) at a concentration of 10000 cells/30 μL per well in red phenol free MEM alpha medium (invitrogen) containing 5% charcoal dextran striped FBS. The following day, 9 points serial 1:5 dilution of each compound was added to the cells in 2.5 μL at final concentrations ranging from 0.3-0.0000018 μM (in table 2), or 0.1 μM for fulvestrant (using as positive control). At 4 hours post compound addition the cells were fixed by adding 25 μL of formalin (final concentration 5% formalin containing 0.1% triton) for 10 minutes at room temperature and then washed twice with PBS. Then, 50 μL of LI-COR blocking buffer containing 0.1% Triton was added to plate for 30 minutes at room temperature. LI-COR blocking buffer was removed and cells were incubated overnight at cold room with 50 μL anti-ER rabbit monoclonal antibody (Thermo scientific MA1-39540) diluted at 1:1000 in LI-COR blocking buffer containing 0.1% tween-20. Wells which were treated with blocking buffer but no antibody were used as background control. Wells were washed twice with PBS (0.1% tween-20) and incubated at 37° C. for 60 minutes in LI-COR (0.1% tween-20) containing goat anti-rabbit antibody Alexa 488 (1:1000) and Syto-64 a DNA dye (2 μM final concentration). Cells were then washed 3 times in PBS and scanned in ACUMEN explorer (TTP-Labtech). Integrated intensities in the green fluorescence and red fluorescence were measured to determine the levels of ERα and DNA respectively.
The degradation activity with respect to estrogen receptors in this test is given by the concentration which degrades 50% of the estrogen receptor (or IC50) in nM.
The % of ERα levels decrease were determined as follows: % inhibition=100*(1−(sample−fulvestrant: DMSO−fulvestrant)).

Row | Compound | percent ER degradation at 0.3 µM [%] | DC50 [nM]
1 | Cc1cc(F)cc(C)c1C(=O)c1sc2cc(C(=O)O)ccc2c1Oc1ccc(NC2CN(CCCF)C2)cc1 [Compound 1, 2-(4-fluoro-2,6-dimethylbenzoyl)-3-(4-((1-(3-fluoropropyl)azetidin-3-yl)amino)phenoxy)benzo[b]thiophene-6-carboxylic acid] | 91 | 5
2 | Cc1cc(F)cc(C)c1C(=O)c1sc2cc(C(=O)O)ccc2c1Oc1ccc(OC2CN(CCCF)C2)cc1 [Compound 2, 2-(4-fluoro-2,6-dimethylbenzoyl)-3-(4-((1-(3-fluoropropyl)azetidin-3-yl)oxy)phenoxy)benzo[b]thiophene-6-carboxylic acid] | 92 | 5
3 | Cc1cc(F)cc(C)c1C(=O)c1sc2cc(C(=O)O)ccc2c1Oc1ccc(CC2CN(CCCF)C2)cc1 [Compound 3, 2-(4-fluoro-2,6-dimethylbenzoyl)-3-(4-((1-(3-fluoropropyl)azetidin-3-yl)methyl)phenoxy)benzo[b]thiophene-6-carboxylic acid] | 85 | 3
4 | Cc1cc(F)cc(C)c1C(=O)c1sc2cc(C(=O)O)ccc2c1Oc1ccc(C=C2CN(CCCF)C2)cc1 [Compound 4, 2-(4-fluoro-2,6-dimethylbenzoyl)-3-(4-((1-(3-fluoropropyl)azetidin-3-ylidene)methyl)phenoxy)benzo[b]thiophene-6-carboxylic acid] | 98 | 0.3
5 | Cc1cc(F)cc(C)c1C(=O)c1sc2cc(C(=O)O)ccc2c1Oc1ccc(O[C@H]2CCN(CCCF)C2)cc1 [Compound 5, (S)-2-(4-fluoro-2,6-dimethylbenzoyl)-3-(4-((1-(3-fluoropropyl)pyrrolidin-3-yl)oxy)phenoxy)benzo[b]thiophene-6-carboxylic acid] | 91 | 12
6 | Cc1cc(F)cc(C)c1C(=O)c1sc2cc(C(=O)O)ccc2c1Oc1ccc(N[C@H]2CCN(CCCF)C2)cc1 [Compound 6, (S)-2-(4-fluoro-2,6-dimethylbenzoyl)-3-(4-((1-(3-fluoropropyl)pyrrolidin-3-yl)amino)phenoxy)benzo[b]thiophene-6-carboxylic acid] | 84 | 3

— patent publication US20260337184A1, “NOVEL SUBSTITUTED 2-CARBONYL-BENZOTHIOPHENE-6-CARBOXYLIC ACID DERIVATIVES, PROCESSES FOR THEIR PREPARATION AND THERAPEUTIC USES THEREOF” (SANOFI, priority 2022, published 2026)
